Laboratory results published in BindingDB's records for doi:10.1021/jm0309194 (University of Innsbruck, 2003).

Assays:
[1] = In vitro binding affinity was determined against butyrylcholinesterase from torpedo californica
[2] = In vitro anticholinesterase activity against butyrylcholinesterase from torpedo californica

C/C(=C\C(=O)N(C)[C@H]1CC[C@@]2(C)[C@@H](CC[C@@H]3[C@@H]2CC[C@]2(C)C([C@H](C)N(C)C)=CC[C@@H]32)C1)C(C)C [1N-[14-(1-dimethylaminoethyl)-2,15-dimethyl-(1S,7S,10R,11S)-tetracyclo[8.7.0.02,7.011,15]heptadec-13-en-5-yl]-1N,3,4-trimethyl-(E)-2-pentenamide]
Ki [1]: 9.1 µM
IC50 [2]: 3.65 µM

C/C=C(\C)C(=O)NC1C=C2CC[C@@H]3[C@H](CC[C@]4(C)C([C@H](C)N(C)C)=CC[C@@H]34)[C@@]2(C)C[C@H]1O (stereo partly drawn) [1N-[14-[1-dimethylamino-(1S)-ethyl]-4-hydroxy-2,15-dimethyl-(1S,2R,4R,5R,10S,11S,15S)-tetracyclo[8.7.0.02,7.011,15]heptadeca-6,13-dien-5-yl]-2-methyl-(E)-2-butenamide]
IC50 [2]: 23.8 µM

C/C(=C\C(=O)N[C@H]1CC[C@@]2(C)[C@@H](CC[C@@H]3[C@@H]2CC[C@]2(C)[C@@H]([C@H](C)N(C)C)CC[C@@H]32)C1)C(C)C [3,4-Dimethyl-pent-2-enoic acid [(3S,5S,8R,9S,10S,13S,14S,17S)-17-(1-dimethylamino-ethyl)-10-methyl-13-(S)-methyl-hexadecahydro-cyclopenta[a]phenanthren-3-yl]-amide]
Ki [1]: 3.25 µM
IC50 [2]: 4.63 µM

C/C=C(\C)C(=O)N[C@H]1CC[C@@]2(C)C(=CC[C@H]3C4=CC[C@H]([C@H](C)N(C)C)[C@@]4(C)CC[C@@H]32)C1=O [(E)-2-Methyl-but-2-enoic acid [(3S,8R,9S,10R,13R,17S)-17-((S)-1-dimethylamino-ethyl)-10,13-dimethyl-4-oxo-2,3,4,7,8,9,10,11,12,13,16,17-dodecahydro-1H-cyclopenta[a]phenanthren-3-yl]-amide]
Ki [1]: 1.6 µM
IC50 [2]: 4.29 µM

C/C=C(\C)C(=O)N[C@H]1CC[C@@]2(C)C(=CC[C@H]3[C@@H]4CC[C@H]([C@H](C)N(C)C)[C@@]4(C)CC[C@@H]32)C1=O [(E)-2-Methyl-but-2-enoic acid [(3S,8S,9S,10R,13S,14S,17S)-17-((S)-1-dimethylamino-ethyl)-10,13-dimethyl-4-oxo-2,3,4,7,8,9,10,11,12,13,14,15,16,17-tetradecahydro-1H-cyclopenta[a]phenanthren-3-yl]-amide]
Ki [1]: 3.08 µM
IC50 [2]: 2.1 µM

C/C(=C\C(=O)N(C)[C@H]1CC[C@@]2(C)[C@@H](CC[C@@H]3[C@@H]2CC[C@]2(C)[C@@H]([C@H](C)N(C)C)CC[C@@H]32)C1)C(C)C [(E)-3,4-Dimethyl-pent-2-enoic acid [(3S,5S,8R,9S,10S,13S,14S,17S)-17-((S)-1-dimethylamino-ethyl)-10,13-dimethyl-hexadecahydro-cyclopenta[a]phenanthren-3-yl]-methyl-amide]
Ki [1]: 3.4 µM
IC50 [2]: 4.07 µM

C[C@@H]([C@H]1CC[C@H]2[C@@H]3CC[C@H]4C[C@@H](N(C)C(=O)/C=C/c5ccccc5)CC[C@]4(C)[C@H]3CC[C@]12C)N(C)C [(E)-N-[(3S,5S,8R,9S,10S,13S,14S,17S)-17-((S)-1-Dimethylamino-ethyl)-10,13-dimethyl-hexadecahydro-cyclopenta[a]phenanthren-3-yl]-N-methyl-3-phenyl-acrylamide]
Ki [1]: 6.6 µM
IC50 [2]: 4.84 µM

C/C=C(\C)C(=O)N[C@@H]1[C@H](OC(C)=O)[C@@H]2CC[C@@H]3[C@H](CC[C@]4(C)[C@@H]([C@H](C)N(C)C)CC[C@@H]34)[C@@]2(C)C[C@@H]1O [Acetic acid (1S,4S,6R,7R,10R,11S,12S,15S,16S)-17-((S)-1-dimethylamino-ethyl)-2-(S)-hydroxy-10,13-dimethyl-3-((E)-2-methyl-but-2-enoylamino)-hexadecahydro-cyclopenta[a]phenanthren-4-yl ester]
IC50 [2]: 18.2 µM

CC(=O)O[C@H]1[C@@H](NC(=O)C=C(C)C)CC[C@]2(C)[C@H]3CC[C@]4(C)[C@@H]([C@H](C)N(C)C)CC[C@H]4[C@@H]3CC[C@@H]12 [Acetic acid (1S,6R,7R,10R,11S,12S,15S,16S)-17-((S)-1-dimethylamino-ethyl)-10,13-dimethyl-3-(3-methyl-but-2-enoylamino)-hexadecahydro-cyclopenta[a]phenanthren-4-yl ester]
Ki [1]: 2.58 µM
IC50 [2]: 2.3 µM

C/C=C(\C)C(=O)N[C@@H]1[C@H](OC(C)=O)[C@@H]2CC[C@H]3C4=CC[C@H]([C@H](C)N(C)C)[C@@]4(C)CC[C@@H]3[C@@]2(C)C[C@@H]1O [Acetic acid (2S,3S,4R,5R,8R,9S,10R,13R,17S)-17-((S)-1-dimethylamino-ethyl)-2-hydroxy-10,13-dimethyl-3-((E)-2-methyl-but-2-enoylamino)-2,3,4,5,6,7,8,9,10,11,12,13,16,17-tetradecahydro-1H-cyclopenta[a]phenanthren-4-yl ester]
Ki [1]: 26.3 µM
IC50 [2]: 38.4 µM

CC(=O)O[C@H]1[C@@H](NC(=O)c2ccccc2)[C@@H](O)C[C@]2(C)[C@H]3CC[C@]4(C)[C@@H]([C@H](C)N(C)C)CC[C@H]4[C@@H]3CC[C@@H]12 [Acetic acid (2S,3S,4R,5R,8S,9S,10R,13S,14S,17S)-3-benzoylamino-17-(1-dimethylamino-ethyl)-2-hydroxy-10-methyl-13-(S)-methyl-hexadecahydro-cyclopenta[a]phenanthren-4-yl ester]
Ki [1]: 20.3 µM
IC50 [2]: 18 µM

CN[C@H]1CC[C@@]2(C)[C@@H](CC[C@@H]3[C@@H]2CC[C@]2(C)[C@@H]([C@H](C)N(C)C(C)=O)CC[C@@H]32)C1 [N-Methyl-N-[1-((3S,5S,8R,9S,10S,13S,14S,17S)-10-methyl-13-(S)-methyl-3-methylamino-hexadecahydro-cyclopenta[a]phenanthren-17-yl)-ethyl]-acetamide]
Ki [1]: 8.6 µM
IC50 [2]: 16.5 µM

C[C@@H]([C@H]1CC[C@H]2[C@@H]3CC[C@H]4C[C@@H](NC(=O)c5ccccc5)[C@@H](O)C[C@]4(C)[C@H]3CC[C@]12C)N(C)C [N-[(2S,3R,5S,8R,9S,10S,13S,14S,17S)-17-(1-Dimethylamino-ethyl)-2-hydroxy-10-methyl-13-(S)-methyl-hexadecahydro-cyclopenta[a]phenanthren-3-yl]-benzamide]
Ki [1]: 16.2 µM
IC50 [2]: 28.9 µM

CC(=O)N[C@H]1CC[C@@]2(C)[C@@H](CC[C@@H]3[C@@H]2CC[C@]2(C)[C@@H]([C@H](C)N(C)C)CC[C@@H]32)C1 [N-[(3S,5S,8R,9S,10S,13S,14S,17S)-17-((S)-1-Dimethylamino-ethyl)-10,13-dimethyl-hexadecahydro-cyclopenta[a]phenanthren-3-yl]-acetamide]
Ki [1]: 7.5 µM
IC50 [2]: 10.3 µM

C[C@@H]([C@H]1CC[C@H]2[C@@H]3CC[C@H]4C(=O)C(NC(=O)c5ccccc5)=CC[C@]4(C)[C@H]3CC[C@]12C)N(C)C [N-[(5R,8S,9S,10R,13S,14S,17S)-17-((S)-1-Dimethylamino-ethyl)-10,13-dimethyl-4-oxo-4,5,6,7,8,9,10,11,12,13,14,15,16,17-tetradecahydro-1H-cyclopenta[a]phenanthren-3-yl]-benzamide]
Ki [1]: 2.15 µM
IC50 [2]: 2.49 µM
